Assay [1] has as its system PCSK9 mRNA expression in HepG2 cells. Briefly: PCSK9 mRNA expression in HepG2 cells, quantitative real-time RT-PCR. It counts as cell-based, Human. The settings on record: 24 hours, indicated concentrations (FIG. 19B). On the procedure: The effects of compounds of Formula I, II, III, and IV on the inhibition of PCSK9 mRNA expression was examined (Horton J D, Cohen J C, Hobbs H H. “Molecular biology of PCSK9: its role in LDL metabolism” TRENDS in Biochemical Sciences 2007; 32:71-77; Cameron J, Ranheim T, Kulseth M A, Leren T P, Berge K E. “Berberine decreases PCSK9 expression in HepG2 cells” Atherosclerosis, 2008 online publication). HepG2 cells were treated with new compounds individually at 10 uM dose for 24 hours. Total RNA was harvested for quantitative real-time RT-PCR analysis using method described in Example 16B. The fold activity was derived by dividing the amount of normalized PCSK9 mRNA in compound-treated cells over the amount of PCSK9 mRNA in untreated control cells. In these experiments, berberine chloride (10 uM) was included for comparison (see FIG. 18).
Total RNA was harvested for quantitative real-time RT-PCR analysis using method described in Examples 16B. The fold activity was derived by dividing the amount of normalized LDLR or PCSK9 mRNA in compound-treated cells over the amount of LDLR or PCSK9 mRNA in untreated control cells.
A general note: Quantitative PCR measures a nucleic acid by following its amplification.

The subject of assay [2] is LDLR mRNA expression in HepG2 cells. As to the kind of experiment: LDLR mRNA expression in HepG2 cells, quantitative real-time RT-PCR. The settings on record: 24 hours, indicated concentrations (FIG. 19A). It counts as cell-based, Human. On the procedure: In yet another experiment, HepG2 cells were treated with various compounds for 24 hours at the indicated doses. Total RNA was isolated and 2 μg was used to generate cDNA in a reaction containing random primers and M-MLV at 37° C. for 1 hour in a volume of […] Real-time PCR was performed on the cDNA using MCEP REALPLEX 2 SYSTEM (Eppendorf) and Universal MasterMix (Applied Biosystems). Human LDLR and GAPDH Pre-Developed TaqMan Assay Reagents (Applied Biosystems) were used to assess the levels of mRNA expressions in HepG2. The levels of LDLR mRNA were normalized to that of GAPDH. Each RNA samples was assayed in triplicate. The abundance of LDLR mRNA in untreated cells was defined as 1, and the amounts of LDLR mRNA from compound-treated cells were plotted relative to that value in FIG. 13. The data shown are mean±s.d.
Activities of some compounds of Formulas I, II, III, and IV on LDLR mRNA expression were determined. HepG2 cells were treated with new compounds individually at a dose less than or equal to 10 μM for 24 hours. Total RNA was harvested for quantitative real-time RT-PCR analysis using the method described in Example 16B. […] In these experiments, berberine chloride was included for comparison.
Quantitative real-time RT-PCR was conducted, and triplicate was assayed in each RNA sample. The data are mean value of triplicates.
Total RNA was harvested for quantitative real-time RT-PCR analysis using method described in Examples 16B.

Experimental findings from US8815900B2, “Compounds and compositions for reducing lipid levels” (CVI Pharmaceuticals Limited, priority 2007, dated 2014) are described below.

In the case of `COc1cc2c(cc1OC)C1Cc3ccc(OC)c(OS(=O)(=O)c4ccccc4)c3CN1CC2` (centres unmarked) [Compound 91, 2,3,10-trimethoxy-5,6,7,8,13,13a-hexahydroiso-quinolino[2,1-b]isoquinolin-9-yl benzenesulfonate], the “PCSK9 mRNA expression” value in assay [1] is on record as “inhibits”. For the same compound, the “LDLR mRNA expression” value in assay [2] is reported as “dose-dependently increases”.
